Data from patent publication US8349823B2, “Treatment of renal cell carcinoma” (priority 2008, dated 2013).

Key:
[1] = tested on: renal cancers not expressing the VHL gene; details: xenografted nude mice; cited from earlier work
renal cancer xenografts = details: xenografts in nude mice, in some cases; cited from earlier work
[2] = Safety of i.v. orellanine during long term treatment with hemodialysis, pigs; details: 10 mg/kg initial, then 5 mg/kg after dialysis 3 times a week for 8 weeks
Experimental: (§1) 5 pigs of the Göttingen minipig strain and 5 dogs of mixed breeding (body weight 10-15 kg) are set up for hemodialysis using equipment designed for children and infants. The animals receive initial doses of 10 mg orellanine/kg b.w. 24 h later, the animals are subjected to a dialysis session of approximately 3 h. After dialysis, the animals are injected with 5 mg orellanine/kg b.w. The dialysis/reinjection procedure is repeated 3 times a week (Monday, Wednesday, Friday) for 8 weeks. Once a week an assessment of the animals' general condition is made. At the end of the experiment all animals are terminated, and specimens for histopathological evaluation are taken from heart, lung, kidney, liver, spleen, small intestine, large intestine, brain, muscle and skin.

[3] = tested on: human renal carcinoma cells (SKRC-52); assay: Subcutaneous human renal cell carcinoma in athymic rats; assay type: in vivo
Excerpt: (§2) Athymic, T cell-deficient rats (RNU, Charles River Laboratories, FRG) are used as a system for in vivo-growth of human renal cell carcinomas. The absence of a T cell-based immune defense in these animals makes them tolerant towards xenografts. One week after arrival in the animal facility 10 animals receive an X-irradiation dosis of 5 Gy in order to suppress also their B cell-mediated response.
(§3) The next day, all animals are equipped with an indwelling catheter for peritoneal dialysis (PD). PD treatment will replace the renal function that is lost as a side-effect upon administration of orellanine.
(§4) One day later, 5 animals are inoculated subcutaneously in the shoulder region with approximately 10×10^6 human renal carcinoma cells (SKRC-52). The 5 remaining animals receive the same amount of cells by intravenous injection. […] At this point 2 animals (controls) in each group are injected i.p. with physiological saline solution and the remaining 3 animals receive 10 mg orellanine/kg b.w. i.p.

[4] = tested on: human renal carcinoma cells (SKRC-52); assay: Intravenously inoculated human renal cell carcinoma in athymic rats; assay type: in vivo; details: 10 mg/kg i.p. then 5 mg/kg i.v. at one and two weeks; terminated another week later
Excerpt: as §2, §3, §4

[5] = tested on: cell lines and primary cells from numerous human tissues (tubular epithelium, podocytes, mesangial cells, fibroblasts, macrophages, endothelium, intestinal …); assay: Effects of orellanine on other cell types, viability; assay type: cell-based; details: 24 h exposure, concentrations up to 1,000 μg/ml (highest achievable), observed six more days
Experimental: Cell lines and primary cells originated from numerous human tissues (tubular epithelium, podocytes and mesangial cells from renal tissue, fibroblasts, macrophages, aortic endothelium, microvascular endothelium and umbilical chord endothelium, intestinal epithelium (duodenal, jejunal, ileal and colonic) and chondrocytes) were cultured under standard conditions. When approximately 70% confluent and in stable growth, the cells were exposed for 24 h to medium containing orellanine in concentrations selected in order to achieve a dose response. […] To compensate for any growth retarding effects caused by dilution of the culture medium by the large volume of orellanine solution added, all cells were supplemented with equal volumes of orellanine buffer.

[6] = tested on: human renal cell carcinoma 786-0; assay: Repeated administration of a lower dose of orellanine, viability; assay type: cell-based; details: for number of viable cells: viability 96 h after first dose
Experimental: FIG. 4: Effect of repeated administration of a lower dose of orellanine. […] The first case is equivalent to a prolonged exposure of the cells (48 h), whereas the cells in the second case have been allowed to recover in orellanine-free medium for two days between the doses. Viability was measured 96 h after addition of the first orellanine dose.
Cells harvested from the human renal cell carcinoma 786-0 were cultured under standard conditions. When approximately 70% confluent and in rapid growth, the cells were exposed to medium containing a low concentration of Orellanine (20 μg/ml) for 24 h. Then the medium was changed to new medium either containing 20 μg/ml orellanine for 24 h (middle bar) or back to regular, complete medium for 48 h, followed by another 24 h in the presence of 20 μg/ml orellanine (rightmost bar).

phosphorylated ERK 1/2 = assay: Western blot of apoptosis pathways in renal cancer cells: ERK 1/2; assay type: cell-based, human; details: 100 μg/ml, up to 24 h; 786-0
Experimental: (§5) For ERK 1/2 and p38, the ratios of phosphorylated (f) to total protein should be compared. Cleaved caspase 3 should be compared to the loading control, beta actin.
(§6) Renal cancer cells were cultured and exposed to orellanine according to Example 7 and harvested at various times up to 24 h. The p38 MAPK system, the p53 system, Fas Ligand, Tumor Necrosis Factor alpha (TNF) and cleaved caspase 3 are key factors in apoptotic pathways leading to cell death. Western blotting was used to determine intracellular levels of A) p38, B) cleaved caspase 3, and C) the proliferative factor phosphorylated ERK 1/2.

Fas ligand (FasL) mRNA = assay: Quantitative PCR of apoptosis mediators in renal cancer cells: Fas ligand; assay type: cell-based, human; details: SKRC-52, vs control cells without orellanine
[7] = tested on: phosphorylated retinoblastoma protein; assay: Western blot of cell cycle proteins in renal cancer cells: phosphorylated Rb; assay type: cell-based, human; details: 100 μg/ml, 24 h measurement
Experimental: (§7) FIG. 5: Effects of orellanine on the cell cycle in renal cell carcinoma (786-0 and SKRC-52) (Western Blot).
(§8) Renal cancer cells, cultured essentially as described in Example 3, were treated with orellanin (100 μg/ml culture medium) for 24 h. During this period cells were harvested after 0, 2, 6 and 24 h exposure. Western blots were performed on the harvested material with antibodies directed against A) the kinase inhibitor p21, B) phosphorylated retinoblastoma protein (a growth stimulating factor), and C) the cdc2 protein which allows the cell to proceed into the M-phase of the cell cycle where the cell divides.

[8] = tested on: phosphorylated (activated) p38; assay: Western blot of apoptosis pathways in renal cancer cells: p38; assay type: cell-based, human; details: 100 μg/ml, 24-h observation period; 786-0
Experimental: as §5, §6

kinase inhibitor p21 = assay: Western blot of cell cycle proteins in renal cancer cells: p21; assay type: cell-based, human; details: 100 μg/ml, harvested 0, 2, 6, 24 h; 786-0 and SKRC-52
Experimental: as §7, §8

cleaved caspase 3 = assay: Western blot of apoptosis pathways in renal cancer cells: cleaved caspase 3; assay type: cell-based, human; details: 24 h after exposure; 786-0
Experimental: as §5, §6

renal carcinoma = assay: Treatment of a human patient with advanced renal cell carcinoma; assay type: in vivo; details: 10 daily i.v. injections of 280 mg (4 mg/kg), hemodialysis after each, further series as needed
Experimental: The initial tumor burden of the patient is determined to be approximately 2 kg. Based on this value, the appropriate daily dose is determined to 280 mg (4 mg/kg at b.w. 70 kg). Before the first injection, the patient is prepared for hemodialysis or peritoneal dialysis since the Orellanine treatment will inevitably destroy healthy renal epithelial tissue along with the killing of the cancer cells, thus leaving the patient without renal function. Two hours after each injection, hemodialysis is started and maintained for 2 hours. […] Optionally, if the disease is unilateral, the unaffected kidney may be surgically removed and preserved during the treatment, and reimplantation attempted after conclusion of the treatment. The progress of the patient is monitored for one month, whereafter additional serial administrations of Orellanine are given as needed to inhibit growth of the renal carcinoma.

cortical renal tissue = details: healthy rats; cited from earlier work
[9] = tested on: Tumor Necrosis Factor alpha (TNF) mRNA; assay: Quantitative PCR of apoptosis mediators in renal cancer cells: TNF; assay type: cell-based, human; details: SKRC-52, vs control cells without orellanine
[10] = tested on: human clear cell cancer (SKRC52); assay: Morphological signs of apoptosis during incubation with orellanine; assay type: cell-based; details: 4 h and 24 h incubation
cdc2 protein = assay: Western blot of cell cycle proteins in renal cancer cells: cdc2; assay type: cell-based, human; details: 100 μg/ml, 24 h
Experimental: as §7, §8

[11] = Safety of i.v. orellanine during long term treatment with hemodialysis, dogs; details: 10 mg/kg initial, then 5 mg/kg after dialysis 3 times a week for 8 weeks
Experimental: as §1

PUMA mRNA = assay: Quantitative PCR of apoptosis mediators in renal cancer cells: PUMA; assay type: cell-based, human; details: SKRC-52, vs control cells without orellanine
[12] = tested on: human renal cell carcinomas (SKRC-52, 786-0, SKRC-17, SKRC-7 and SKRC-21); assay: Viability of human renal cell carcinoma cells for 7 days after 24 h exposure to orellanine; assay type: cell-based; details: 400 μM orellanine for 24 h, then orellanine-free medium, observed six more days
Experimental: FIG. 1: Observation of the viability of cells from 5 different human renal cell carcinomas (primary tumors and metastases) during 7 days following 24 h of exposure to 400 μM orellanine (100 μg/ml culture medium. Viability is calculated by dividing the number of living cells in treated samples by the number of living cells in control samples (n=6). The gray area in the graph represents the period of orellanine incubation (24 h). The following days the cells were cultured in orellanine-free complete culture medium. The medium was changed at each viability measurement.
The pictures shown in FIGS. 2A and 2B were taken with the same magnification, and one week after incubation with orellanine/vehicle.
Cells harvested from 5 different human renal cell carcinomas (SKRC-52, 786-0, SKRC-17, SKRC-7 and SKRC-21), representing both mother tumors and metastatic growths, were cultured under standard conditions. When approximately 70% confluent and in rapid growth, the cells were exposed to medium containing Orellanine (400 μM) for 24 h.

[13] = tested on: human renal cell carcinomas (786-0 and SKRC7); assay: Dose/response effect of orellanine on renal cell carcinoma cells; assay type: cell-based; details: single 24 h exposure
Experimental: Cells harvested from 2 different human renal cell carcinomas (SKRC-7, 786-0), representing both mother tumors and metastatic growths, were cultured under standard conditions. When approximately 70% confluent and in rapid growth, the cells were exposed to medium containing different concentrations of Orellanine […] for 24 h.

## CO[C@@H]1[C@H](O)C[C@@H](O[C@@H]2C[C@H](Oc3cc4cc5c(c(O)c4c(O)c3C)C(=O)[C@@H](O[C@H]3C[C@@H](O[C@H]4C[C@@H](O[C@H]6C[C@](C)(O)[C@@H](OC(C)=O)[C@H](C)O6)[C@H](O)[C@@H](C)O4)[C@H](O)[C@@H](C)O3)[C@H]([C@H](OC)C(=O)[C@@H](O)[C@@H](C)O)C5)O[C@H](C)[C@@H]2OC(C)=O)O[C@@H]1C [Chromomycin A3]
[1]
  tumor growth: significantly retarded tumor growth

## Cc1cc(N(CCOS(C)(=O)=O)CCOS(C)(=O)=O)ccc1C=O [NSC-281612]
Renal cancer xenografts
  effect on tumor mass: apparently complete eradication of the tumor mass

## [O-][n+]1ccc(O)c(O)c1-c1c(O)c(O)cc[n+]1[O-] [Orellanine, 3,3′,4,4′-tetrahydroxy-2,2′-bipyridine-N,N′-dioxide]
[2]
  behavior and general condition: remain normal
  histopathological examination: no tissue damage with the exception of the kidneys where there is widespread tubular damage leading to complete renal failure
[3]; 10 mg/kg i.p. then 5 mg/kg into the tumor site, another 2 weeks later
  signs of the tumors: no signs of the tumors are evident
[3]; 10 mg/kg i.p., two weeks after first injection
  tumor size relative to the size recorded at the time of injection: less than 25%
[3]; former control animals, 10 mg/kg into the tumor site, after 2 weeks
  reduction of tumor size: more than 75%
[4]
  tumor burden relative to control animals: less than 10%
[5]
  effects on viability: None of the tested cell types exhibited any effects on viability
[6]; repeated exposure at lower limit of the single exposure response interval (20 μg/ml)
  toxic effects of repeated exposure: further, marked toxic effects
[6]; second dose 20 μg/ml 24 h after the first dose
  number of viable cells: strong decrease in the number of viable cells
[6]; second dose 20 μg/ml at 72 h
  number of viable cells: considerably smaller, but still significant, effect
Phosphorylated ERK 1/2
  phosphorylated ERK 1/2: up-regulation
Fas ligand (FasL) mRNA
  FasL mRNA expression: extreme up-regulation
[7]
  phosphorylated forms of the retinoblastoma protein: completely lacking
[8]
  phosphorylated (activated) p38: steady increase
Kinase inhibitor p21
  intracellular levels of p21: increased with a maximum around 6 h
Cleaved caspase 3
  amount of cleaved caspase-3: dramatically increased
Renal carcinoma
  renal cancer at the conclusion of the treatment: completely eradicated
Cortical renal tissue
  expression of several key antioxidant genes: dramatically decreased expression
  oxidative stress in cortical renal tissue: increased oxidative stress
[9]
  TNF mRNA expression: extreme up-regulation
[10]
  typical signs of apoptosis, vacuolization and cell shrinkage: evident already after 4 h incubation, and are further aggravated after 24 h
cdc2 protein
  cdc2 protein level: dramatically down-regulated
[11]
  behavior and general condition: remain normal
  histopathological examination: no tissue damage with the exception of the kidneys where there is widespread tubular damage leading to complete renal failure
PUMA mRNA
  PUMA mRNA expression: extreme up-regulation
[12]
  toxicity to the tested cell types (viability): highly toxic to all the tested cell types
[13]
  dose response interval (orellanine dose vs cell death): 5 to 200 µg/mL
